According to patent publication US8183279B2, “1,3-dihydroisoindole derivatives” (Merck Patent Gesellschaft Mit Beschrankter Haftung, priority 2007, dated 2012):

target: T1, Recombinant human HSP90α (Homo sapiens, UniProt P07900); assay: HSP90 inhibition, [3H]17AAG radioligand filter binding test; conditions: competition with 0.08 μM [3H]17AAG, HSP90 1.5 μg/assay, 22° C., 30 min
T1 construct: host or cells: E. coli
Excerpt: The binding of geldanamycin or 17-allylamino-17-demethoxygeldanamycin (17AAG) to HSP90 and competitive inhibition thereof can be utilised in order to determine the inhibitory activity of the compounds according to the invention (Carreras et al. 2003, Chiosis et al. 2002).
In the specific case, a radioligand filter binding test is used. The radioligand used here is tritium-labelled 17-allylaminogeldanamycin,
[3H]17AAG. This filter binding test allows a targeted search for inhibitors which interfere with the ATP binding site.
Recombinant human HSP90α(E. coli expressed, 95% purity);
[3H]17AAG (17-allylaminogeldanamycin, [allylamino-2,3-^3H. Specific activity: 1.11×10^12 Bq/mmol (Moravek, MT-1717);
HEPES filter buffer (50 mM HEPES, pH 7.0, 5 mM MgCl2, BSA 0.01%) Multiscreen FB (1 μm) filter plate (Millipore, MAFBNOB 50).
The 96-well microtitre filter plates are firstly irrigated and coated with 0.1% of polyethylenimine.
The test is carried out under the following conditions:
Reaction temperature 22° C.
Reaction time: 30 min., shaking at 800 rpm
50 mM HEPES HCl, pH 7.0, 5 mM MgCl2, 0.01% (w/v) of BSA
At the end of the reaction, the supernatant in the filter plate is removed by suction with the aid of a vacuum manifold (Multiscreen Separation System, Millipore), and the filter is washed twice.
The filter plates are then measured in a beta counter (Microbeta, Wallac) with scintillator (Microscint 20, Packard).
“% of control” is determined from the “counts per minutes” values, and the IC-50 value of a compound is calculated therefrom.

IC50, 10 to 1000 nM:
CCCCN(C)C(=O)c1cc(C(=O)N2Cc3ccc(-c4ccccc4)cc3C2)c(O)cc1O [Compound A38, N-Butyl-2,4-dihydroxy-N-methyl-5-(5-phenyl-1,3-dihydroisoindole-2-carbonyl)benzamide]
CCCCN(C)C(=O)c1cc(C(=O)N2Cc3ccc(OCCN4CCCCC4)cc3C2)c(O)cc1O [Compound A8]
CCCCN(C)C(=O)c1cc(C(=O)N2Cc3ccccc3C2)c(O)cc1O [Compound A2, N-butyl-2,4-dihydroxy-5-(1,3-dihydroisoindole-2-carbonyl)-N-methylbenzamide]
CNCCOc1ccc2c(c1)CN(C(=O)c1cc(C(=O)N(C)Cc3ccc(C)s3)c(O)cc1O)C2 [Compound A48, 2,4-Dihydroxy-N-methyl-5-[5-(2-methylaminoethoxy)-1,3-dihydroisoindole-2-carbonyl]-N-(5-methylthiophen-2-ylmethyl)benzamide]
CCCCN(C)C(=O)c1cc(C(=O)N2Cc3ccc(OCCN(C)CC)cc3C2)c(O)cc1O [Compound A40, N-Butyl-5-{5-[2-(ethylmethylamino)ethoxy]-1,3-dihydroisoindole-2-carbonyl}-2,4-dihydroxy-N-methylbenzamide]
CCCCN(C)C(=O)c1cc(C(=O)N2Cc3ccc(C(N)=O)cc3C2)c(O)cc1O [Compound A42]
CCCCN(C)C(=O)c1cc(C(=O)N2Cc3ccc(O)cc3C2)c(O)cc1O [Compound A1, N-butyl-2,4-dihydroxy-5-(5-hydroxy-1,3-dihydroisoindole-2-carbonyl)-N-methylbenzamide]
CCCCN(C)C(=O)c1cc(C(=O)N2Cc3ccc(C(=O)N(C)C)cc3C2)c(O)cc1O [Compound A41, N,N'-Dimethyl-2-[5-(butylmethylcarbamoyl)-2,4-dihydroxybenzoyl]-2,3-dihydro-1H-isoindole-5-carboxamide]
CCCCN(C)C(=O)c1cc(C(=O)N2Cc3ccc(OCCCC#N)cc3C2)c(O)cc1O [Compound A33, N-Butyl-5-[5-(3-cyanopropoxy)-1,3-dihydroisoindole-2-carbonyl]-2,4-dihydroxy-N-methylbenzamide]
CCCCN(C)C(=O)c1cc(C(=O)N2Cc3ccc(OCCN4CCOCC4)cc3C2)c(O)cc1O [Compound A6]
CN(C)CCOc1ccc2c(c1)CN(C(=O)c1cc(C(=O)N3Cc4ccccc4C3)c(O)cc1O)C2 [Compound A46, [5-(1,3-Dihydroisoindole-2-carbonyl)-2,4-dihydroxyphenyl]-[5-(2-dimethylaminoethoxy)-1,3-dihydroisoindol-2-yl]methanone]
CCCCN(C)C(=O)c1cc(C(=O)N2Cc3ccc(OCCN4CCNCC4)cc3C2)c(O)cc1O [Compound A7]
CCCCN(C)C(=O)c1cc(C(=O)N2Cc3ccc(OCC(N)=O)cc3C2)c(O)cc1O [Compound A32, N-Butyl-5-(5-carbamoylmethoxy-1,3-dihydroisoindole-2-carbonyl)-2,4-dihydroxy-N-methylbenzamide]
CCCCN(C)C(=O)c1cc(C(=O)N2Cc3ccc(C(=O)OC)cc3C2)c(O)cc1O [Compound A39, Methyl 2-[5-(butylmethylcarbamoyl)-2,4-dihydroxybenzoyl]-2,3-dihydro-1H-isoindole-5-carboxylate]
CN(C)CCOc1ccc2c(c1)CN(C(=O)c1cc(C(=O)N(C)Cc3ccccc3)c(O)cc1O)C2 [Compound A45, N-Benzyl-5-[5-(2-dimethylaminoethoxy)-1,3-dihydroisoindole-2-carbonyl]-2,4-dihydroxy-N-methylbenzamide]
CNCCOc1ccc2c(c1)CN(C(=O)c1cc(C(=O)N(C)Cc3ccco3)c(O)cc1O)C2 [Compound A49, N-Furan-2-ylmethyl-2,4-dihydroxy-N-methyl-5-[5-(2-methylaminoethoxy)-1,3-dihydroisoindole-2-carbonyl]benzamide]
CCCCN(C)C(=O)c1cc(C(=O)N2Cc3ccc(OCCNC)cc3C2)c(O)cc1O [Compound A35, N-Butyl-2,4-dihydroxy-N-methyl-5-[5-(2-methylaminoethoxy)-1,3-dihydroisoindole-2-carbonyl]benzamide]
CN(C)CCOc1ccc2c(c1)CN(C(=O)c1cc(C(=O)N(C)Cc3ccco3)c(O)cc1O)C2 [Compound A44, 5-[5-(2-Dimethylaminoethoxy)-1,3-dihydroisoindole-2-carbonyl]-N-furan-2-ylmethyl-2,4-dihydroxy-N-methylbenzamide]
CCCCN(C)C(=O)c1cc(C(=O)N2Cc3ccc(OCCN(C)C)cc3C2)c(O)cc1O [Compound A3, N-butyl-5-[5-(2-dimethylaminoethoxy)-1,3-dihydroisoindole-2-carbonyl]-2,4-dihydroxy-N-methylbenzamide]
CCCCN(C)C(=O)c1cc(C(=O)N2Cc3ccc(OCCO)cc3C2)c(O)cc1O [Compound A34, N-Butyl-2,4-dihydroxy-5-[5-(2-hydroxyethoxy)-1,3-dihydroisoindole-2-carbonyl]-N-methylbenzamide]
CCCCN(C)C(=O)c1cc(C(=O)N2Cc3ccc(OCCCNC)cc3C2)c(O)cc1O [Compound A47, N-Butyl-2,4-dihydroxy-N-methyl-5-[5-(3-methylaminopropoxy)-1,3-dihydroisoindole-2-carbonyl]benzamide]
Cc1ccc(CN(C)C(=O)c2cc(C(=O)N3Cc4ccc(OCCN(C)C)cc4C3)c(O)cc2O)s1 [Compound A43, 5-[5-(2-Dimethylaminoethoxy)-1,3-dihydroisoindole-2-carbonyl]-2,4-dihydroxy-N-methyl-N-(5-methylthiophen-2-ylmethyl)benzamide]
